US12583939B2, “Bispecific antigen binding molecules that bind HER2, and methods of use thereof” (Regeneron Pharmaceuticals, Inc., priority 2020, dated 2026)

Legend:
T47D cells [1] = experiment: Internalization and cluster formation, 2D monolayers; format: cell-based; conditions: 2D monolayers (SD53); 10 ug/mL
Experimental: (§1) For 2D monolayer assays, T47D cells were plated on collagen-coated 96-well optical plates (Greiner, Cat #655936) at 25,000 cells/well in complete media and incubated overnight at 37° C. in 5% CO2. For 3D spheroids, cells were plated in low adhesion 96-well plates (Corning #4515) at 10,000 cells/well and incubated for 72 hours. The day of the assay, cells were incubated for 30 minutes with cold (4° C.) media containing 10 ug/mL of Alexa647 (Thermo, Cat #A37573) labeled antibodies. After, cells were washed twice (5 minutes, 100 ul, 4° C., complete medium) and incubated in complete media at 37° C. for 60 minutes. Cells were incubated for 30 minutes with cold (4° C.) media containing 4 ug/mL of Alexa488 anti-Human Fab (Jackson #109-547-003). […] After, the solution was replaced with PBS. Images were acquired with a Zeiss Spinning Disc Confocal Microscope and analyzed using Zeiss Zen Blue software. Quantification of the number of intracellular vesicles and surface clusters was performed in single confocal sections of representative images.

T47D cells [2] = experiment: Internalization and cluster formation, 3D spheroids; format: cell-based; conditions: 3D Spheroids (SD55); 10 ug/mL
Experimental: as §1

hErbB2-MMH = target: T1, hErbB2-MMH (Homo sapiens, UniProt P04626); experiment: Surface plasmon resonance binding kinetics at 25° C.
T1 construct: myc-myc-hexahistidine (C); made in house
Experimental: Equilibrium dissociation constants (KD values) for hErbB2.mmh binding to anti-HER2×HER2 antibodies conjugated with either M830 or M1 were determined using a real-time surface plasmon resonance biosensor assay on a MASS-2 instrument. The MASS-2 sensor surface was derivatized by amine coupling with a monoclonal mouse anti-human Fc antibody (REGN2567) to capture anti-HER2×HER2 ADC and parent unmodified antibodies expressed with human constant regions. […] Human hErbB2 was prepared in-house expressing a C-terminal myc-myc-hexahistidine tag (hErbB2-MMH). […] Association of hErbB2-MMH to each of the captured ADCs and monoclonal antibodies was monitored for 3 minutes. Subsequently, hErbB2-MMH dissociation was monitored for 10 minutes in HBS-EP running buffer. Anti-human Fc surface was regenerated by a brief injection of 20 mM H3PO4. All binding kinetic experiments were performed at 25° C.
Kinetic association (ka) and dissociation (kd) rate constants were determined by fitting the real-time sensorgrams to a 1:1 binding model using Scrubber 2.0c curve fitting software. All sensorgrams were double referenced by subtracting buffer injection sensorgram signal from the corresponding analyte sensorgram, thereby removing artifacts caused by dissociation of the antibody from the capture surface. Binding dissociation equilibrium constants (KD) and dissociative half-lives (t½) were calculated from the kinetic rate constants as: […]

## CompAb2: parental HER2×HER2 bispecific antibody of MEDI4276 (SEQ ID NO: 52 and 53) [reference compound]
T47D cells [1]
  Cluster %: 28%
  Internalized Vesicles %: 100%
T47D cells [2]
  Cluster %: 41%
  Internalized Vesicles %: 100%
hErbB2-MMH
  Antigen Bound: 177.8 RU
  ka: 290000 M⁻¹ s⁻¹
  kd: ≤1e-05 s⁻¹
